Measurements published in ChEMBL document CHEMBL4483862, “Open-source discovery of chemical leads for next-generation chemoprotective antimalarials” (2018).

Test system: Plasmodium berghei
Experiment: Luciferase/luciferin-expressing antifolate-resistant parasites were used to infect a culture of HepG2 cells that were pre-incubated with compounds. Infected hepatocytes emit light due to the luciferase reaction. Assay results are presented as the percent inhibition of light emission compared to control. […]
Format: functional
Details: sporozoite; for IC90: read-out: LUCIFERASE INFECTION ASSAY - IC90
[1] = read-out: LUCIFERASE INFECTION ASSAY - IC50

Structure (SMILES) | IC90 | IC50 [1] | other results
FC(F)Sc1ccc2nc3ccccc3c(N3CCOCC3)c2c1 | 0.134 µM | – | IC50 (PBLUC_HILL_SLOPE 15.6, PBLUC_R_SQUARED 0.79, read-out: LUCIFERASE INFECTION ASSAY - IC50): 0.117 µM
N#Cc1ccccc1OC(=O)Nc1ccc(OC(F)(F)F)cc1 | 3.62 µM | 3.31 µM | –
NS(=O)(=O)c1ccc(CNC(=O)c2ccc(Cn3cccn3)cc2)s1 | > 10 µM | – | IC50 (HEPG2TOX_HILL_SLOPE 0.983, HEPG2TOX_R_SQUARED 0.0206, read-out: LUCIFERASE INFECTION ASSAY - IC50): > 10 µM
COc1ccc(-c2cnc3cnc(-c4ccc(CO)cc4)cn23)cn1 | 9.63 µM | – | IC50 (PBLUC_HILL_SLOPE 6.35, PBLUC_R_SQUARED 0.601, read-out: LUCIFERASE INFECTION ASSAY - IC50): 6.81 µM
COc1cc(-c2cc(-c3cc(OC)c(OC)c(OC)c3)cnc2N)ccc1O | 6.84 µM | – | IC50 (PBLUC_HILL_SLOPE 4.32, PBLUC_R_SQUARED 0.78, read-out: LUCIFERASE INFECTION ASSAY - IC50): 4.12 µM
Cc1cccc(C)c1N(C(=O)CCNC(=O)c1ccccc1Cl)c1nc2ccccc2s1 | > 10 µM | > 10 µM | –
CC(C)CC(N)c1csc(NC(=O)Nc2ccccc2C(C)(C)C)n1 (centres undefined) | 3.05 µM | – | IC50 (PBLUC_HILL_SLOPE 4.98, PBLUC_R_SQUARED 0.541, read-out: LUCIFERASE INFECTION ASSAY - IC50): 1.96 µM
CCc1ccc(-n2nnnc2C/C=N/Nc2ccc(F)cc2)cc1 | > 10.2 µM | > 10.2 µM | –
COc1cc(/C=C/C(=O)c2ccc(Cl)c([N+](=O)[O-])c2)ccc1OC(F)F | > 10 µM | > 10 µM | –
O=C1C(=C2NC(c3cccc(C(F)(F)F)c3)=CS2)Sc2ccccc21 | 3.25 µM | – | IC50 (FFLUC_HILL_SLOPE 302, FFLUC_R_SQUARED 0.711, PBLUC_HILL_SLOPE 16.1, PBLUC_R_SQUARED 0.464, read-out: LUCIFERASE INFECTION ASSAY - IC50): 2.83 µM
Cc1ccc(-c2noc(CCCN3CCN(c4cnn(-c5ccccc5)c(=O)c4Cl)CC3)n2)cc1 | 5.31 µM | – | IC50 (HEPG2TOX_HILL_SLOPE 2.5, HEPG2TOX_R_SQUARED 0.985, PBLUC_HILL_SLOPE 2.59, PBLUC_R_SQUARED 0.752, read-out: LUCIFERASE INFECTION ASSAY - IC50): 2.28 µM
CN1/C(=C\C(=O)COC(=O)/C=C/c2cn(-c3ccccc3)nc2-c2ccc(F)cc2)C(C)(C)c2ccccc21 | > 10 µM | – | IC50 (FFLUC_HILL_SLOPE 1.67, FFLUC_R_SQUARED 0.511, PBLUC_HILL_SLOPE 9.36, PBLUC_R_SQUARED 0.0694, read-out: LUCIFERASE INFECTION ASSAY - IC50): 9.4 µM
C=CCN(C(=O)c1cc(C2CC2)nc2ccccc12)c1nc2c(s1)CCCC2 | > 10 µM | > 10 µM | –
COc1cccc(-c2nc3ccc(NC(=O)Nc4ccc5c(c4)OCO5)cn3n2)c1 | > 10 µM | – | IC50 (PBLUC_HILL_SLOPE 3.78, PBLUC_R_SQUARED 0.75, read-out: LUCIFERASE INFECTION ASSAY - IC50): 7.06 µM
Cc1ccc2nc(NC(=O)c3cccc(F)c3)c(C(=O)NC3CCCC3)n2c1 | 1.08 µM | 0.886 µM | –
CCCCC#CC1(O)c2ccccc2C(=O)N1c1ccccc1 (centres undefined) | 9.4 µM | – | IC50 (HEPG2TOX_HILL_SLOPE 16.6, HEPG2TOX_R_SQUARED 0.582, PBLUC_HILL_SLOPE 7.49, PBLUC_R_SQUARED 0.197, read-out: LUCIFERASE INFECTION ASSAY - IC50): 7.01 µM
O=C(Nc1ccc(Cl)c(Cl)c1)n1ccc(C(F)(F)F)n1 | > 10.2 µM | – | IC50 (HEPG2TOX_HILL_SLOPE 2.26, HEPG2TOX_R_SQUARED 0.289, PBLUC_HILL_SLOPE 2.6, PBLUC_R_SQUARED 0.537, read-out: LUCIFERASE INFECTION ASSAY - IC50): 5.64 µM
O=C(C1CCCO1)N1CCn2c1nc1ccccc12 (centres undefined) | > 10 µM | > 10 µM | –
C/C(N)=C(/C#N)C(=O)COC(=O)c1cc(-c2cccc3ccccc23)nc2ccccc12 | > 10 µM | > 10 µM | –
CN(CCOc1ccc(Br)cc1)CC(O)COc1ccc(C#N)cc1 (centres undefined) | > 10 µM | 8.69 µM | –
CCOC(=O)C1=C(C)NC(C)=C(C(=O)OCC)C1C(=O)OCC(=O)Nc1c(Br)cc(C)cc1Br | > 10 µM | – | IC50 (HEPG2TOX_HILL_SLOPE 0.766, HEPG2TOX_R_SQUARED 0.947, PBLUC_HILL_SLOPE 2.01, PBLUC_R_SQUARED 0.575, read-out: LUCIFERASE INFECTION ASSAY - IC50): 4.48 µM

Structure (SMILES) | IC90 | IC50 [1] | other results
O=C(Nc1cc(C(F)(F)F)ccc1Cl)C(Sc1nnc(Cc2cccs2)n1CCc1ccccc1)c1ccccc1 (centres undefined) | > 10 µM | 5.35 µM | –
CN(C)c1ccc(Nc2nc(=O)cn[nH]2)cc1 | > 14.3 µM | – | IC50 (PBLUC_HILL_SLOPE 0.727, PBLUC_R_SQUARED 0.391, read-out: LUCIFERASE INFECTION ASSAY - IC50): > 14.3 µM
COc1cccc(-c2nc(-c3ccc(O)cc3O)cs2)c1OC | > 10 µM | – | IC50 (HEPG2TOX_HILL_SLOPE 1.65, HEPG2TOX_R_SQUARED 0.767, read-out: LUCIFERASE INFECTION ASSAY - IC50): > 10 µM
O=c1cc(CN2CCCc3ccc(C(F)(F)F)cc32)nc2sccn12 | > 10 µM | > 10 µM | –
N#CC(=C1NS(=O)(=O)c2ccccc21)c1nc(C23CC4CC(CC(C4)C2)C3)cs1 | 1.97 µM | – | IC50 (FFLUC_HILL_SLOPE 0.216, FFLUC_R_SQUARED 0.688, PBLUC_HILL_SLOPE 0.978, PBLUC_R_SQUARED 0.875, read-out: LUCIFERASE INFECTION ASSAY - IC50): 0.208 µM
O=C(N/N=C(\Cc1ncc[nH]1)c1ccccc1)c1cccs1 | 4.17 µM | – | IC50 (HEPG2TOX_HILL_SLOPE 1.23, HEPG2TOX_R_SQUARED 0.975, PBLUC_HILL_SLOPE 4.09, PBLUC_R_SQUARED 0.691, read-out: LUCIFERASE INFECTION ASSAY - IC50): 2.44 µM
CCCn1c(N)c(C(=O)CN(C)Cc2cccc(Cl)c2Cl)c(=O)[nH]c1=O | 3.38 µM | – | IC50 (PBLUC_HILL_SLOPE 149, PBLUC_R_SQUARED 0.302, read-out: LUCIFERASE INFECTION ASSAY - IC50): 3.33 µM
CCc1ccc2nc(NC(=O)c3nccnc3N)sc2c1 | > 10 µM | – | IC50 (HEPG2TOX_HILL_SLOPE 7.58, HEPG2TOX_R_SQUARED 0.761, PBLUC_HILL_SLOPE 15.5, PBLUC_R_SQUARED 0.446, read-out: LUCIFERASE INFECTION ASSAY - IC50): 9.33 µM
Clc1cccc(CNc2ncnc3sccc23)c1 | 9.83 µM | – | IC50 (HEPG2TOX_HILL_SLOPE 2.22, HEPG2TOX_R_SQUARED 0.937, PBLUC_HILL_SLOPE 2.28, PBLUC_R_SQUARED 0.461, read-out: LUCIFERASE INFECTION ASSAY - IC50): 3.76 µM
C/C(=N\NC(=O)Nc1ccc(Cl)cc1)c1ccc2c(c1)OCCO2 | 9.81 µM | – | IC50 (HEPG2TOX_HILL_SLOPE 11.1, 2.08, HEPG2TOX_R_SQUARED 0.732, 0.913, PBLUC_HILL_SLOPE 3.29, PBLUC_R_SQUARED 0.645, read-out: LUCIFERASE INFECTION ASSAY - IC50): 5.03 µM
COc1ccc(N(CCC23CC4CC(CC(C4)C2)C3)S(=O)(=O)c2ccccc2)cc1 | > 10 µM | > 10 µM | –
O=C(NC1CC1)c1ccc(-c2cnc3cnc(/C=C/c4ccccc4)cn23)cc1 | > 8.67 µM | – | IC50 (HEPG2TOX_HILL_SLOPE 0.214, HEPG2TOX_R_SQUARED 0.714, PBLUC_HILL_SLOPE 0.95, PBLUC_R_SQUARED 0.815, read-out: LUCIFERASE INFECTION ASSAY - IC50): 1.05 µM
O=C1C(c2ccccc2)=C(Nc2cc(C(F)(F)F)cc(C(F)(F)F)c2)c2ccccc21 | 0.879 µM | – | IC50 (FFLUC_HILL_SLOPE 4.26, FFLUC_R_SQUARED 0.731, HEPG2TOX_HILL_SLOPE 18.3, HEPG2TOX_R_SQUARED 0.933, PBLUC_HILL_SLOPE 2.24, PBLUC_R_SQUARED 0.855, read-out: LUCIFERASE INFECTION ASSAY - IC50): 0.329 µM
COc1ccc(NS(=O)(=O)c2cc([N+](=O)[O-])ccc2NNC(=S)NC2CCCCC2)cc1 | > 10 µM | > 10 µM | –
CC(C)C(=O)N1CCN(c2nc(CSc3ccccc3)nc3sc4c(c23)CCCC4)CC1 | > 10 µM | – | IC50 (PBLUC_HILL_SLOPE 15.3, PBLUC_R_SQUARED 0.212, read-out: LUCIFERASE INFECTION ASSAY - IC50): 8.67 µM
COc1ccccc1N1CCN(c2oc(-c3ccccc3Cl)nc2S(=O)(=O)c2ccc(C)cc2)CC1 | > 10 µM | – | IC50 (PBLUC_HILL_SLOPE 1.06, PBLUC_R_SQUARED 0.3, read-out: LUCIFERASE INFECTION ASSAY - IC50): > 10 µM
Cc1nnsc1C(=O)Nc1ccc(-n2nc(C(F)(F)F)cc2C(F)(F)F)cc1 | > 7.83 µM | – | IC50 (PBLUC_HILL_SLOPE 2.63, PBLUC_R_SQUARED 0.209, read-out: LUCIFERASE INFECTION ASSAY - IC50): 5.65 µM
Cc1cc(N2CCN(Cc3nc(=O)c4cc(Cl)ccc4[nH]3)CC2)nc(C(C)C)n1 | > 10 µM | – | IC50 (HEPG2TOX_HILL_SLOPE 8.69, HEPG2TOX_R_SQUARED 0.562, PBLUC_HILL_SLOPE 3.21, PBLUC_R_SQUARED 0.576, read-out: LUCIFERASE INFECTION ASSAY - IC50): 5.79 µM
Cc1[nH]c2ccccc2c1C(=O)NCC1(c2ccccc2)CCC1 | > 10 µM | – | IC50 (HEPG2TOX_HILL_SLOPE 3.6, HEPG2TOX_R_SQUARED 0.416, PBLUC_HILL_SLOPE 3.04, PBLUC_R_SQUARED 0.598, read-out: LUCIFERASE INFECTION ASSAY - IC50): 7.33 µM
Cc1nnsc1-c1onc(C)c1C(=O)NC(=O)Nc1ccccc1 | > 9.61 µM | 4.69 µM | –
CC(=O)N/C(=C\c1ccccc1)C(=O)OCc1ncc(-c2ccccc2)o1 | > 10 µM | > 10 µM | –
